From US9045415B2, “Targeting of EWS-FLI1 as anti-tumor therapy” (Georgetown University, priority 2006, dated 2015)
Values belong to the molecule of their own block, whether it stands above or below them.

How the values were obtained:
ESFT cell line CHP-100 = experiment: CHP-100 tumors in nude mice treated with YK-4-275; format: in vivo; details: treated for 4 days when tumors palpable
Protocol: Nude mice were inoculated with ESFT cell line CHP-100. When tumors were palpable, animals were treated with YK-4-275 (NSC635437) for 4 days. Curves show tumor volumes over time.

TC32 = experiment: Nuclear fragmentation (DAPI), TC32; format: cell-based; details: 50 μM, 6 hours
Protocol: (§1) Cells were treated for 24 hours with 10 μM YK-4-279. The Caspase-3 substrate DEVD-AMC was incubated with equal amounts of protein lysate and fluorescence from cleaved substrate measured in a fluorimeter. TC32 and non-transformed cells HEK-293, HFK, and HEC were treated for 6 hours with high dose (50 μM) YK-4-279. DAPI stained cells were photographed at 600× using inverted fluorescence microscope.

A673 cells = experiment: YK-4-279 toxicity in shRNA-modified ESFT cells; format: cell-based; details: for IC50: Homo sapiens
Protocol: FIG. 39A provides data showing HEC and HFK, non-transformed endocervical cells and keritinocytes, treated with YK-4-279 for 72 hours and assayed for viability using WST reduction. FIG. 39B provides data showing TC71 cells treated for 16 hours with YK-4-279 or doxorubicin. Lysates were assayed for cleavage of AMC-DEVD by induced caspase-3 and fluorescence was measured. FIG. 39C provides data showing that RHA reduced TC71 cells were more resistant to YK-4-279 treatment than wild-type cells. FIG. 39D provides data showing an shRNA tet-inducible expression vector stably transfected into A673 (ESFT) cells to reduce EWS-FLI1 levels. FIG. 39E provides data showing that EWS-FLI1 reduced A673 cells were more resistant to YK-4-279 treatment than wild-type cells.
shRNA (short hairpin RNA) against RHA was purchased from Open Biosystems (Huntsville, Ala.) Both virus production and purification were done according to Open Biosystems protocols. (For designing shRNA see McIntyre G. J. et al. “Design and cloning strategies for constructing shRNA expression vectors.” BMC Biotechnol. (2006) 6:1)
In order to further support for the target specificity of YK-4-279 toxicity upon ESFT cells, the levels of each of the critical proteins were reduced by using shRNA in A673 cells42. […] When EWS-FLI1 was reduced using shRNA, the IC50 increased 10-fold from 0.5 μM to approximately 5 μM (FIG. 39D, FIG. 39E).

[1] = test system: ESFT cell lines (TC32, A4573, TC71, and ES925); experiment: Caspase-3 activity (DEVD-AMC cleavage), ESFT cell lines; format: cell-based; details: 24 hours
Protocol: as §1

[2] = test system: cyclin D levels in four non-EWS-FLI1 containing cell lines; experiment: Cyclin D immunoblot, non-EWS-FLI1 containing cell lines; format: cell-based; details: 10 μM overnight
EWS-FLI1 [3] = experiment: SPR displacement assay of E9R from EWS-FLI1; format: binding
Description: FIG. 31 provides data showing a small molecule binding to EWS-FLI1 and displaces E9R from EWS-FLI1. […] Aromatic functionalization produced YK-4-279 a para-methoxy derivative of NSC635437. […] A FLI1 antibody complexed EWS-FLI1 and precipitated it from the solution.
An aromatic optimization strategy was used to design analogs to improve upon the activity of NSC635437.

[4] = test system: non-EWS-FLI1 cancer cell lines and non-transformed cell lines (HFK, HEC, HEK293); experiment: Caspase-3 activity, non-EWS-FLI1 cancer and non-transformed cell lines; format: cell-based; details: 10 μM, 24 hours
Protocol: (§2) FIG. 33 provides data showing YK-4-279 is potent and specific inhibitor of ESFT. […] Cell number was measured by MTT or WST reduction after seven days in culture. […] FIG. 33D cell lines expressing EWS-FLI1 compared to non-EWS-FLI1 malignant cell lines following 3 days in culture to establish the IC50 using WST assay. […] Graph plots level of fluorescence in treated divided by untreated lysate. […] Scale bar equals 200 μm.
as §1

EWS-FLI1 [5] = experiment: Fluorescence polarization assay, FITC-E9R displacement; format: binding; details: 30 μM YK-4-279; 3.2 μM FITC-E9R
Protocol: The assay was performed in 20 mM Tris, 500 mM NaCl, 0.67 M imidazole, pH 7.4. The fluorescence polarization was analyzed in a QuantaMaster fluorimeter (Photon Technology International, Ford, West Sussex, UK) equipped with polymer sheet polarizers at an excitation wavelength of 495 nm and emission wavelength of 517 nm. […] (3.2 μM, as determined from saturated binding curve) with the same buffer and instrumental settings as described above.

ES925 = experiment: Cell growth, primary ESFT line ES925; format: cell-based; details: Homo sapiens, 72 h; 3 days; read-out: anti-proliferative IC50
Protocol: as §2

[6] = test system: cyclin D levels in TC32 cells; experiment: Cyclin D immunoblot, TC32 cells; format: cell-based; details: TC32 cells treated for 14 hours
HEK293, HFK, and HEC = experiment: Nuclear fragmentation (DAPI), non-transformed cells; format: cell-based; details: 50 μM, 6 hours
Protocol: as §1

panel of ESFT cell lines = experiment: Cell growth (WST), panel of ESFT cell lines; format: cell-based; details: 72 h, 3 days
Protocol: as §2

GUES1 = experiment: Cell growth, primary ESFT line GUES1; format: cell-based; details: Homo sapiens, 72 h; 3 days; read-out: anti-proliferative IC50
Protocol: as §2

[7] = biological target: T1, EWS-FLI1 and RHA in TC32 cells (Homo sapiens, UniProt Q01543+Q01844); experiment: Co-precipitation of RHA with EWS-FLI1 from treated TC32 cells; format: cell-based
T1 construct: endogenous in cells; host or cells: TC32 (ESFT cell line)
T1 sequence (Q01844+Q01543 fused): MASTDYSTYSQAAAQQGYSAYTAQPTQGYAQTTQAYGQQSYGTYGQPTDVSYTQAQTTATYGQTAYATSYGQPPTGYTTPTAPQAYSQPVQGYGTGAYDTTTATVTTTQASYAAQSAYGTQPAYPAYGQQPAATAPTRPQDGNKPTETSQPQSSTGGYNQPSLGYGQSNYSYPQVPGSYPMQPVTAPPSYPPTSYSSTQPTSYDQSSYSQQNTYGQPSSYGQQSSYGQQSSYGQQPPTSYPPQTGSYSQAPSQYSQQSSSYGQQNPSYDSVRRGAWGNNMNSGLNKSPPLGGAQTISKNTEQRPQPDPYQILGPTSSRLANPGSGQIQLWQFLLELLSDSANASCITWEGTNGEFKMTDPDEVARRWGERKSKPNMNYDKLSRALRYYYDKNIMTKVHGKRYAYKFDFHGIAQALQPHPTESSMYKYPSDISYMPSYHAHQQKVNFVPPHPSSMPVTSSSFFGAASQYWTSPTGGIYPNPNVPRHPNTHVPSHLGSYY
Protocol: FIG. 32 provides data showing YK-4-279 reduces EWS-FLI1 functional activity. FIG. 32A concerns TC32 cells that were treated with YK-4-279 and resolved protein lysates and that were immunoblotted for co-precipitated RHA (top), EWS-FLI1 (middle), or total RHA (bottom).
Protein lysates and immunoprecipitations were performed as previously published (Uren et al (2005)). Recombinant GST-RHA (647-1075) was prepared from crude bacterial extracts without further purification.

- melting point: 194 to 196 °C
Compound: O=C(CC1(O)C(=O)Nc2c(Cl)ccc(Cl)c21)c1ccc(Cl)cc1 (stereo not shown) [NSC635437, 4,7-Dichloro-3-[2-(4-chlorophenyl)-2-oxoethyl]-3-hydroxyl-1,3-dihydro-2H-indol-2-one]
- tumor growth (ESFT cell line CHP-100): inhibition of tumor growth

Compound: COc1ccc(C(=O)CC2(O)C(=O)Nc3c(Cl)ccc(Cl)c32)cc1 (stereo not shown) [YK-4-279, 4,7-Dichloro-3-hydroxy-3-[2-(4-methoxyphenyl)-2-oxoethyl]-1,3-dihydro-2H-indol-2-one]
- apoptosis (nuclear fragmentation) (TC32): significant apoptosis
- increase of IC50 when EWS-FLI1 was reduced (A673 cells): 10 fold
- IC50 (A673 cells; A673, EWS-FLI1 reduced using shRNA): ~5000 nM
- IC50 (A673 cells; A673, RHA reduced cells (shRNA)): > 10000 nM
- IC50 (A673 cells; A673, before EWS-FLI1 reduction): 500 nM
- IC50 (A673 cells; A673, control shRNA (targeting luciferase)): < 1000 nM
- caspase-3 activity ([1]; TC32 cells, dose range): rose in a dose dependent fashion
- caspase-3 activation ([1]; four ESFT cell lines, 10 μM): induced caspase-3 activity
- cyclin D levels [2]: did not affect cyclin D levels
- binding of E9R to EWS-FLI1 (EWS-FLI1 [3]; 32 μM E9R with 10 μM YK-4-279): 5 R.U.
- binding of E9R to EWS-FLI1 (EWS-FLI1 [3]; 64 μM E9R with 10 μM YK-4-279): 7 R.U.
- apoptosis (caspase-3 activation) [4]: none
- displacement of FITC-E9R from EWS-FLI1 (EWS-FLI1 [5]): complete displacement
- IC50 (ES925): 1000 nM
- cyclin D levels [6]: nearly eliminated cyclin D levels
- cell death (nuclear fragmentation) (HEK293, HFK, and HEC): no cell death
- IC50 (panel of ESFT cell lines): 500 to 2000 nM
- IC50 (GUES1): 8000 nM
- EWS-FLI1 and RHA protein levels [7]: did not directly affect EWSFLI1 nor RHA levels
- EWS-FLI1/RHA association in treated ESFT cells ([7]; by 10 μM): dissociation of EWS-FLI1 from RHA
